Measured values: ChEMBL document CHEMBL4507297, “Data for DCP probe PF-04457845” (2021)

What was measured:
[1] = biological target: Discoidin domain-containing receptor 2 (Homo sapiens) (UniProt Q16832); details: Compound concentration 1000.0 nM
[2] = biological target: NT-3 growth factor receptor (Homo sapiens) (UniProt Q16288); details: Compound concentration 1000.0 nM
[3] = biological target: MAP kinase-interacting serine/threonine-protein kinase 2 (Homo sapiens) (UniProt Q9HBH9); details: Compound concentration 1000.0 nM
[4] = biological target: Activin receptor type-1-like (Homo sapiens) (UniProt P37023); details: Compound concentration 1000.0 nM
[5] = biological target: Dual serine/threonine and tyrosine protein kinase (Homo sapiens) (UniProt Q6XUX3); details: Compound concentration 1000.0 nM
[6] = biological target: Atypical kinase COQ8A, mitochondrial (Homo sapiens) (UniProt Q8NI60); details: Compound concentration 1000.0 nM
[7] = test system: Phosphatidylinositol 4,5-bisphosphate 3-kinase catalytic subunit alpha isoform (Homo sapiens), P42336 [C420R]; details: Compound concentration 1000.0 nM
[8] = biological target: Serine/threonine-protein kinase Chk2 (Homo sapiens) (UniProt O96017); details: Compound concentration 1000.0 nM
[9] = biological target: Activin receptor type-1B (Homo sapiens) (UniProt P36896); details: Compound concentration 1000.0 nM
[10] = biological target: Ephrin type-B receptor 3 (Homo sapiens) (UniProt P54753); details: Compound concentration 1000.0 nM
[11] = biological target: Insulin-like growth factor 1 receptor (Homo sapiens) (UniProt P08069); details: Compound concentration 1000.0 nM
[12] = biological target: Ribosomal protein S6 kinase alpha-6 (Homo sapiens) (UniProt Q9UK32); details: Compound concentration 1000.0 nM
[13] = biological target: Ephrin type-B receptor 6 (Homo sapiens) (UniProt O15197); details: Compound concentration 1000.0 nM
[14] = test system: Mast/stem cell growth factor receptor Kit (Homo sapiens), P10721 [V559D,T670I]; details: Compound concentration 1000.0 nM
[15] = biological target: Mitogen-activated protein kinase kinase kinase 11 (Homo sapiens) (UniProt Q16584); details: Compound concentration 1000.0 nM
[16] = biological target: Ephrin type-A receptor 5 (Homo sapiens) (UniProt P54756); details: Compound concentration 1000.0 nM
[17] = biological target: Serine/threonine-protein kinase PAK 1 (Homo sapiens) (UniProt Q13153); details: Compound concentration 1000.0 nM
[18] = biological target: T1, Alpha-2A adrenergic receptor (Homo sapiens) (UniProt P08913); details: Compound concentration 10.0 uM
T1 sequence (whole entry): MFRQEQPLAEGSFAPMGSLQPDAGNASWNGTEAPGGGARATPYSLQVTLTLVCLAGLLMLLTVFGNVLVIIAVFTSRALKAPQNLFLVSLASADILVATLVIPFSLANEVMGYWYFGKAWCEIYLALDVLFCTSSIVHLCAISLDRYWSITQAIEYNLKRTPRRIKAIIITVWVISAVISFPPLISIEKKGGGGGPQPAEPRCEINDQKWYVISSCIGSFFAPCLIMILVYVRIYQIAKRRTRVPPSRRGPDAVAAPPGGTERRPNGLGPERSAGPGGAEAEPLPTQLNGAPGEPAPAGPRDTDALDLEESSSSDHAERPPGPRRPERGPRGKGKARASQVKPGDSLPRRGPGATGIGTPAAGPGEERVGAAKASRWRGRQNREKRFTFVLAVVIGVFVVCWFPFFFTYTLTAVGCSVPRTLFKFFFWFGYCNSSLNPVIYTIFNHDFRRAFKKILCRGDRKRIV

[19] = biological target: Serine/threonine-protein kinase WNK3 (Homo sapiens) (UniProt Q9BYP7); details: Compound concentration 1000.0 nM
[20] = biological target: Megakaryocyte-associated tyrosine-protein kinase (Homo sapiens) (UniProt P42679); details: Compound concentration 1000.0 nM
[21] = test system: Phosphatidylinositol 4,5-bisphosphate 3-kinase catalytic subunit alpha isoform (Homo sapiens), P42336 [E542K]; details: Compound concentration 1000.0 nM
[22] = biological target: Cyclin-dependent kinase-like 5 (Homo sapiens) (UniProt O76039); details: Compound concentration 1000.0 nM
[23] = biological target: Myosin light chain kinase 2, skeletal/cardiac muscle (Homo sapiens) (UniProt Q9H1R3); details: Compound concentration 1000.0 nM
[24] = biological target: Calcium/calmodulin-dependent protein kinase kinase 1 (Homo sapiens) (UniProt Q8N5S9); details: Compound concentration 1000.0 nM
[25] = biological target: 5-hydroxytryptamine receptor 2A (Homo sapiens, UniProt P28223); details: Compound concentration 10.0 uM
[26] = biological target: Serine/threonine-protein kinase DCLK3 (Homo sapiens) (UniProt Q9C098); details: Compound concentration 1000.0 nM
[27] = biological target: Ephrin type-A receptor 1 (Homo sapiens) (UniProt P21709); details: Compound concentration 1000.0 nM
[28] = biological target: Cyclin-dependent kinase 17 (Homo sapiens) (UniProt Q00537); details: Compound concentration 1000.0 nM
[29] = biological target: NUAK family SNF1-like kinase 2 (Homo sapiens) (UniProt Q9H093); details: Compound concentration 1000.0 nM
[30] = biological target: Dual specificity mitogen-activated protein kinase kinase 3 (Homo sapiens) (UniProt P46734); details: Compound concentration 1000.0 nM
[31] = biological target: cAMP-dependent protein kinase catalytic subunit beta (Homo sapiens) (UniProt P22694); details: Compound concentration 1000.0 nM
[32] = biological target: Casein kinase I isoform alpha (Homo sapiens) (UniProt P48729); details: Compound concentration 1000.0 nM
[33] = biological target: Tyrosine-protein kinase ABL1 (Homo sapiens) (UniProt P00519); details: Compound concentration 1000.0 nM
[34] = biological target: Serine/threonine-protein kinase TAO2 (Homo sapiens) (UniProt Q9UL54); details: Compound concentration 1000.0 nM
[35] = biological target: Myosin light chain kinase, smooth muscle (Homo sapiens) (UniProt Q15746); details: Compound concentration 1000.0 nM
[36] = biological target: Serine/threonine-protein kinase Nek7 (Homo sapiens) (UniProt Q8TDX7); details: Compound concentration 1000.0 nM
[37] = biological target: Rho-associated protein kinase 1 (Homo sapiens) (UniProt Q13464); details: Compound concentration 1000.0 nM
[38] = biological target: Calcium/calmodulin-dependent protein kinase type 1B (Homo sapiens) (UniProt Q6P2M8); details: Compound concentration 1000.0 nM
[39] = test system: Tyrosine-protein kinase ABL1 (Homo sapiens), P00519 [H396P]; details: Compound concentration 1000.0 nM

Atypical kinase COQ8A, mitochondrial (Homo sapiens), sequence (Q8NI60 163-647 limits assumed): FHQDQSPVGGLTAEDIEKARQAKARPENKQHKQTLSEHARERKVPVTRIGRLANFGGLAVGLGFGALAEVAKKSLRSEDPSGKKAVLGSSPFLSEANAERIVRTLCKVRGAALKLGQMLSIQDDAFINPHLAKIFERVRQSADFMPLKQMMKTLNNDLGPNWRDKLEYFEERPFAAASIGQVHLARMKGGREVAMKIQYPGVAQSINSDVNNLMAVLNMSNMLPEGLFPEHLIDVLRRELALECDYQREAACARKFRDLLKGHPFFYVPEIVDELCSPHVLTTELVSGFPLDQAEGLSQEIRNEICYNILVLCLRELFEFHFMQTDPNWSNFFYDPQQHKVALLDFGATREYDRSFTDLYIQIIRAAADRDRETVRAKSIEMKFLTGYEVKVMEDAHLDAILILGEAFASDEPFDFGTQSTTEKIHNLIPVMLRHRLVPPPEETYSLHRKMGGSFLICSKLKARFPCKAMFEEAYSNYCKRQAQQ
Serine/threonine-protein kinase DCLK3 (Homo sapiens), sequence (Q9C098 whole entry): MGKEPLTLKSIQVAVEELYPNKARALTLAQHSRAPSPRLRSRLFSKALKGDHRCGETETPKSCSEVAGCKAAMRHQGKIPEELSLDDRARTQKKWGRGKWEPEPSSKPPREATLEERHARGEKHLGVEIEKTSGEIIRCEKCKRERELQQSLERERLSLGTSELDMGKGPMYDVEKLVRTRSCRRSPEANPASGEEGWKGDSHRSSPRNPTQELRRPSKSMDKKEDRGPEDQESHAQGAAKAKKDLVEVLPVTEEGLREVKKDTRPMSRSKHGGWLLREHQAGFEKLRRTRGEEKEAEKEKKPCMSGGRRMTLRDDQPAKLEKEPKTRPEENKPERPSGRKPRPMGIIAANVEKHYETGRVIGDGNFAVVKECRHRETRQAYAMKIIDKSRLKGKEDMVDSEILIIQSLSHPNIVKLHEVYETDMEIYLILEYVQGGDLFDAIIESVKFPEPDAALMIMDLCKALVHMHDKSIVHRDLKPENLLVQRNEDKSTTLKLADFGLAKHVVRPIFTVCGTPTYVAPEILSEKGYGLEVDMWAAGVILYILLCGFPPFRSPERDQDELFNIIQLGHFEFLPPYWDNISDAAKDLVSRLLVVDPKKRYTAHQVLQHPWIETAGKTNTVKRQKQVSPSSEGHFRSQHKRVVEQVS
Rho-associated protein kinase 1 (Homo sapiens), sequence (Q13464 2-1354 limits assumed): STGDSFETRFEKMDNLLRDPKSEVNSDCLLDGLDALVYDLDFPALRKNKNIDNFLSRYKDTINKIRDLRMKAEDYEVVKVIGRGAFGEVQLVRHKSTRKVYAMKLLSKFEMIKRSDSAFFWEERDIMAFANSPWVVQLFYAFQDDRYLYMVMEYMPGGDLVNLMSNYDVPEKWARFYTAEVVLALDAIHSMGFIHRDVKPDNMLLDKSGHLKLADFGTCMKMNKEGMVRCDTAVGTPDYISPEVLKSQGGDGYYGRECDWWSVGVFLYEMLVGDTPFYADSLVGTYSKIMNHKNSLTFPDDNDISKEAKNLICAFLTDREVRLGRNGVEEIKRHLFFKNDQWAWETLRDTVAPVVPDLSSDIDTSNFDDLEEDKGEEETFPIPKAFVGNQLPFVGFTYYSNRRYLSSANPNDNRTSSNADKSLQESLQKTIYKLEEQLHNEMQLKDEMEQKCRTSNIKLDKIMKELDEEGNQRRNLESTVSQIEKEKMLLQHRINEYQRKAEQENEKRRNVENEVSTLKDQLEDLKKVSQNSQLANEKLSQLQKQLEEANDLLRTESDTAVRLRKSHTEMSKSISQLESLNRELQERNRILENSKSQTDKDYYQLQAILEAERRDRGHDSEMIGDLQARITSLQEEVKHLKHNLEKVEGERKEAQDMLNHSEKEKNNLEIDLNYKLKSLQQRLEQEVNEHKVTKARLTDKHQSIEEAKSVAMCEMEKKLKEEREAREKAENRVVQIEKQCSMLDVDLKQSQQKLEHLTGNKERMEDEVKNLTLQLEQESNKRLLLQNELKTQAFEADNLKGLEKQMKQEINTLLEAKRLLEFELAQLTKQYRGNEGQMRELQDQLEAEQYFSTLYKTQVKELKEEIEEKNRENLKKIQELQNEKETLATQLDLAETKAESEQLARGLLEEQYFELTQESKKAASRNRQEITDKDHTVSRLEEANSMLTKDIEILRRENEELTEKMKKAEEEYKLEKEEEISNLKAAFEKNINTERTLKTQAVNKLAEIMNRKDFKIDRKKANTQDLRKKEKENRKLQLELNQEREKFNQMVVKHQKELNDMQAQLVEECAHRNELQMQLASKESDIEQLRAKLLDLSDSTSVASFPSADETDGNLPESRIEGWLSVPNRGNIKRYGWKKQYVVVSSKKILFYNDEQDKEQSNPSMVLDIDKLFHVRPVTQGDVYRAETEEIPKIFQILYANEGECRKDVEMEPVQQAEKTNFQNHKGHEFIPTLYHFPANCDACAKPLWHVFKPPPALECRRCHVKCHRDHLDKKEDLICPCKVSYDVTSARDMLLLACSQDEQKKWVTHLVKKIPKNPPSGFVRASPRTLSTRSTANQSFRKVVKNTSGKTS
Cyclin-dependent kinase 17 (Homo sapiens), sequence (Q00537 whole entry, looked up): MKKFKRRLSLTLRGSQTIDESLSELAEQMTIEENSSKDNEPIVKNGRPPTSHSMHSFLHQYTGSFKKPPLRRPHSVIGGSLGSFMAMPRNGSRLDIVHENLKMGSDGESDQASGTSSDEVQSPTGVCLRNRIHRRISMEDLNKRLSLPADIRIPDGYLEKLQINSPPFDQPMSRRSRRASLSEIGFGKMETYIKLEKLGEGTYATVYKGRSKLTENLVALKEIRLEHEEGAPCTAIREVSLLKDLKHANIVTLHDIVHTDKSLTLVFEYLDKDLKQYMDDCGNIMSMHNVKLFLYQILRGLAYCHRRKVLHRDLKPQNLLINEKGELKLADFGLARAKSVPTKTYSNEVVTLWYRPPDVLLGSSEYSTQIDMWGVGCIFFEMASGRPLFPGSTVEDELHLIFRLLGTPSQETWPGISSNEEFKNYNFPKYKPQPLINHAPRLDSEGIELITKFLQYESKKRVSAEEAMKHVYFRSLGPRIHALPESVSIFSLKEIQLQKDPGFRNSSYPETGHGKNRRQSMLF
Dual specificity mitogen-activated protein kinase kinase 3 (Homo sapiens), sequence (P46734 whole entry): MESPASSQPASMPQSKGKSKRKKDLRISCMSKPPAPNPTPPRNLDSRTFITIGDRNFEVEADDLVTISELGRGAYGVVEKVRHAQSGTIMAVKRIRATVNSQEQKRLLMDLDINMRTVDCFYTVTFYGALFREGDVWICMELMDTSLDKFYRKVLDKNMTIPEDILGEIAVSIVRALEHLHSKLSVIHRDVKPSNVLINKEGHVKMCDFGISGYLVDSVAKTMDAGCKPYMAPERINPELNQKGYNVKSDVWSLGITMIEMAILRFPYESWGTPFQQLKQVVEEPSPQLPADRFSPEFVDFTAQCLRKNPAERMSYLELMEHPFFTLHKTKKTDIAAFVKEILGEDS
Myosin light chain kinase 2, skeletal/cardiac muscle (Homo sapiens), sequence (Q9H1R3 whole entry): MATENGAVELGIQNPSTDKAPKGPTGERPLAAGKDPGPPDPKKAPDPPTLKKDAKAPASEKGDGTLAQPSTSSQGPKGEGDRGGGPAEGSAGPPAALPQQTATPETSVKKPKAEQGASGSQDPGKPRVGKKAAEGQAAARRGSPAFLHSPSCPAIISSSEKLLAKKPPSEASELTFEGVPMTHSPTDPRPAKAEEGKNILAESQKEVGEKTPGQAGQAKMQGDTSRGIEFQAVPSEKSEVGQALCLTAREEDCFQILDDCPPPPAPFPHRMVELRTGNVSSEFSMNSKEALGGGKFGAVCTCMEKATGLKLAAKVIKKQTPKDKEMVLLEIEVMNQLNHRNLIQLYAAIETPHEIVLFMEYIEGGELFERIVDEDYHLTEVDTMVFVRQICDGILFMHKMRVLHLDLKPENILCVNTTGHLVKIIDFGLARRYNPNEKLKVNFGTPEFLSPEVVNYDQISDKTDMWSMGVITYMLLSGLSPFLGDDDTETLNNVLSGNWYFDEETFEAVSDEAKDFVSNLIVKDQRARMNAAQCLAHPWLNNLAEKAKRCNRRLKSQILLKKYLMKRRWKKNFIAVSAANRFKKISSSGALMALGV
Cyclin-dependent kinase-like 5 (Homo sapiens), sequence (O76039 whole entry): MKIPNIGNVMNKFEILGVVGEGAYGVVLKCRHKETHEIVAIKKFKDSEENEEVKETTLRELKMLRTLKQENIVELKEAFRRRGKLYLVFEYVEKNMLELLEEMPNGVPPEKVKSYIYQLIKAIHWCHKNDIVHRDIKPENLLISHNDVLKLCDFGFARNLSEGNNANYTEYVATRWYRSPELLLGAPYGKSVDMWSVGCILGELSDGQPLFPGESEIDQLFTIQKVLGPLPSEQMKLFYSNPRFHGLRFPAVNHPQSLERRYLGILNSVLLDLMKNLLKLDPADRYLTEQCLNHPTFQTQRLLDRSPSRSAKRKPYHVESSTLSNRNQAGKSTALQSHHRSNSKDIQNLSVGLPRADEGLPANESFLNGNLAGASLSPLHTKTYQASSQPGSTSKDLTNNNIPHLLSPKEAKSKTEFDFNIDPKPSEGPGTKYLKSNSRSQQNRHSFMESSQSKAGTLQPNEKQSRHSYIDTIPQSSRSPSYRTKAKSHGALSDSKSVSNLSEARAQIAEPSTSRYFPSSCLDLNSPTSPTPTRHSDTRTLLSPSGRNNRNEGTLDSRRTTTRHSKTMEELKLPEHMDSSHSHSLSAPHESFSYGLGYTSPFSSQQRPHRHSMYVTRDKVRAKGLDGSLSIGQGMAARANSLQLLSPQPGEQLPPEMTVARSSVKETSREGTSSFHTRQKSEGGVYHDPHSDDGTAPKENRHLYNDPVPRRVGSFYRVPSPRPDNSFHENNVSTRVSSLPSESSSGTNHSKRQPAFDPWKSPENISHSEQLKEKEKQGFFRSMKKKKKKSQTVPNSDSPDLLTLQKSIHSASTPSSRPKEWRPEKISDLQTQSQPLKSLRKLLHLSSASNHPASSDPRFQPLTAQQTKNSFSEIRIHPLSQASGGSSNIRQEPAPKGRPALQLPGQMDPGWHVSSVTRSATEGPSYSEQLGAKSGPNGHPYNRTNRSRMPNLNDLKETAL

SMILES	residual activity [1] [%]	residual activity [2] [%]	residual activity [3] [%]	residual activity [4] [%]	residual activity [5] [%]	residual activity [6] [%]	residual activity [7] [%]	residual activity [8] [%]	residual activity [9] [%]	residual activity [10] [%]	residual activity [11] [%]	residual activity [12] [%]	residual activity [13] [%]	residual activity [14] [%]	residual activity [15] [%]	residual activity [16] [%]	residual activity [17] [%]	inhibition [18] [%]	residual activity [19] [%]	residual activity [20] [%]	also measured
O=C(Nc1cccnn1)N1CCC(=Cc2cccc(Oc3ccc(C(F)(F)F)cn3)c2)CC1	100	100	100	77	69	78	100	94	88	81	87	100	100	96	74	98	72	34.5	100	100	residual activity [21]: 65%; residual activity [22]: 100%; residual activity [23]: 88%; residual activity [24]: 92%; inhibition [25]: 82.9%; residual activity [26]: 85%; residual activity [27]: 100%; residual activity [28]: 100%; residual activity [29]: 88%; residual activity [30]: 100%; residual activity [31]: 100%; residual activity [32]: 100%; residual activity [33]: 93%; residual activity [34]: 100%; residual activity [35]: 100%; residual activity [36]: 100%; residual activity [37]: 100%; residual activity [38]: 100%; residual activity [39]: 100%
O=C(Nc1cccnn1)N1CC(C/C=C/c2cncc(Oc3ccc(C(F)(F)F)cn3)n2)C1	80	85	77	100	65	96	66	100	79	100	100	80	87	100	100	85	90	0.68	84	59	residual activity [21]: 88%; residual activity [22]: 73%; residual activity [23]: 87%; residual activity [24]: 100%; inhibition [25]: -3.55%; residual activity [26]: 100%; residual activity [27]: 100%; residual activity [28]: 100%; residual activity [29]: 73%; residual activity [30]: 72%; residual activity [31]: 100%; residual activity [32]: 88%; residual activity [33]: 82%; residual activity [34]: 66%; residual activity [35]: 73%; residual activity [36]: 100%; residual activity [37]: 82%; residual activity [38]: 63%; residual activity [39]: 76%
